Data: the supplement of paper PMC10307832

Assays:
Test in all cases: relative viability (nuclei count vs DMSO), 5 days (fraction); higher = more cells survive
[1] = compound: CC[C@H](CO)Nc1nc(NCc2ccccc2)c2ncn(C(C)C)c2n1 [Seliciclib] + Nc1ncn([C@H]2C[C@H](O)[C@@H](CO)O2)c(=O)n1 [Decitabine] (partner 2 µM)
Procedure, shortened: (§1)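 One day after seeding in 1536-well plates, lung cancer cell lines were dosed by pin tool. Dosing was either single-drug or a fixed anchor-drug dose plus five library-drug doses (not always all listed) in √10 steps. After 5 days, nuclei were stained in one fix-and-stain step and counted on 4× images, and relative viability is the nuclei count of treated wells over that of vehicle wells, given as the median of duplicate plates.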

[2] = compound: CC[C@H](CO)Nc1nc(NCc2ccccc2)c2ncn(C(C)C)c2n1 [Seliciclib] + Cc1nc(NC(=O)N2CCC[C@H]2C(N)=O)sc1-c1ccnc(C(C)(C)C(F)(F)F)c1 [Alpelisib] (partner 2 µM)
Procedure, shortened: as §1

[3] = compound: CC[C@H](CO)Nc1nc(NCc2ccccc2)c2ncn(C(C)C)c2n1 [Seliciclib] + C[C@]1(O)C[C@@H](c2nc(-c3ccc4ccc(-c5ccccc5)nc4c3)c3c(N)nccn32)C1 [Linsitinib] (partner 1 µM)
Procedure, shortened: as §1

[4] = compound: CC[C@H](CO)Nc1nc(NCc2ccccc2)c2ncn(C(C)C)c2n1 [Seliciclib] + CS(=O)(=O)N1CCN(Cc2cc3nc(-c4cccc5[nH]ncc45)nc(N4CCOCC4)c3s2)CC1 [Pictilisib] (partner 1 µM)
Procedure, shortened: as §1

Row | Cell Line | relative viability ([1]; first compound 0.08 µM) | relative viability ([1]; first compound 0.253 µM) | relative viability ([1]; first compound 0.8 µM) | relative viability ([1]; first compound 2.53 µM) | relative viability ([1]; first compound 8 µM) | relative viability ([2]; first compound 0.08 µM) | relative viability ([2]; first compound 0.253 µM) | relative viability ([2]; first compound 0.8 µM) | relative viability ([2]; first compound 2.53 µM) | relative viability ([2]; first compound 8 µM) | relative viability ([3]; first compound 0.08 µM) | relative viability ([3]; first compound 0.253 µM) | relative viability ([3]; first compound 0.8 µM) | relative viability ([3]; first compound 2.53 µM) | relative viability ([3]; first compound 8 µM) | relative viability ([4]; first compound 0.08 µM) | relative viability ([4]; first compound 0.253 µM) | relative viability ([4]; first compound 0.8 µM) | relative viability ([4]; first compound 2.53 µM) | relative viability ([4]; first compound 8 µM)
1 | EPLC-272H | 0.373 | 0.432 | 0.336 | 0.395 | 0.342 | 0.968 | 0.847 | 0.795 | 1.04 | 0.895 | 1.32 | 1.09 | 1.04 | 1.35 | 0.927 | 0.316 | 0.338 | 0.287 | 0.174 | 0.3
2 | LCLC-103H | 0.781 | 0.727 | 0.755 | 0.735 | 0.644 | 0.992 | 0.957 | 0.869 | 1.05 | 0.906 | 1.17 | 0.973 | 1.02 | 1.02 | 0.849 | 0.819 | 0.673 | 0.627 | 0.434 | 0.576
3 | NCI-H2405 | 0.758 | 0.68 | 0.742 | 0.63 | 0.716 | 0.718 | 0.698 | 0.642 | 0.689 | 0.729 | 0.978 | 0.962 | 0.863 | 0.941 | 0.793 | 0.462 | 0.43 | 0.314 | 0.288 | 0.35
4 | HCC-15 | 0.685 | 0.814 | 0.629 | 0.457 | 0.527 | 0.956 | 0.954 | 0.846 | 0.902 | 0.712 | 0.931 | 0.986 | 0.861 | 0.941 | 0.667 | 0.705 | 0.857 | 0.473 | 0.791 | 0.548
5 | PC-3 [JPC-3] | 0.819 | 0.883 | 0.906 | 0.809 | 0.767 | 1.02 | 1.07 | 0.968 | 0.997 | 0.904 | 0.954 | 0.994 | 1 | 0.915 | 0.893 | 0.825 | 0.954 | 0.652 | 0.712 | 0.652
6 | HARA | 0.456 | 0.655 | 0.56 | 0.474 | 0.6 | 0.892 | 0.911 | 0.747 | 0.855 | 0.776 | 0.978 | 1.02 | 0.943 | 1.1 | 1.01 | 0.284 | 0.376 | 0.339 | 0.422 | 0.283
7 | NCI-H2126 | 0.567 | 0.565 | 0.606 | 0.55 | 0.47 | 0.681 | 0.698 | 0.753 | 0.749 | 0.673 | 0.718 | 0.711 | 0.698 | 0.721 | 0.716 | 0.507 | 0.548 | 0.456 | 0.423 | 0.467
8 | LXF-289 | 0.348 | 0.299 | 0.403 | 0.39 | 0.39 | 1.01 | 1.09 | 1.02 | 1.02 | 0.891 | 0.945 | 1.03 | 0.908 | 0.947 | 0.914 | 0.779 | 0.86 | 0.701 | 0.595 | 0.724
9 | NCI-H460 | 0.455 | 0.57 | 0.446 | 0.591 | 0.388 | 0.426 | 0.485 | 0.381 | 0.538 | 0.385 | 0.797 | 0.795 | 0.75 | 1 | 0.637 | 0.367 | 0.376 | 0.275 | 0.248 | 0.252
10 | NCI-H1395 | 0.729 | 0.621 | 0.681 |  | 0.705 | 1.08 | 0.843 | 1.04 | 1.07 | 1.02 | 0.961 | 0.739 | 1 | 1.06 | 1.28 | 0.6 | 0.757 | 0.641 | 0.535 | 0.649
11 | NCI-H1793 | 0.496 | 0.47 | 0.477 | 0.539 | 0.529 | 0.641 | 0.68 | 0.508 | 0.708 | 0.742 | 0.784 | 0.545 | 0.79 | 1.16 | 0.743 | 0.282 | 0.339 | 0.317 | 0.32 | 0.294
12 | NCI-H2009 | 0.378 | 0.42 | 0.402 | 0.371 | 0.415 | 1.14 | 1.31 | 1.15 | 1.14 | 1.23 | 1.24 | 1.16 | 1.09 | 1.19 | 1.19 | 0.77 | 1.11 | 0.584 | 0.762 | 0.699
